From patent publication US7951814B2, “Quinazolinedione derivatives as TRPA1 modulators” (Glenmark Pharmaceuticals, S.A., priority 2008, dated 2011)
pIC50: −log10 of the molar value. Like-named read-outs stand apart in the source and are kept apart here.

Columns and labels:
[1] = Plasma levels after oral dosing in the rat pain models; type: in vivo; settings: for concentration at 2 h / concentration at 4 h: Sprague-Dawley, AITC model; for concentration at 2 h: p.o.
male SD rats [2] = experiment: Formalin-induced nocifensive behaviour; type: in vivo, rat; settings: 10 mg/kg, p.o., given 1.5 h (compound 10) or 3 h (compound 37) prior to formalin (2.5%)
From the text: (§1) The illustrative examples of the present invention are screened for ‘in vivo’ TRPA1 based efficacy in various models of pain/hyperalgesia according to modified procedures described in (a) McNamara C R et al., PNASU (2007), 104, 13525-13530 (b) Eid S R et al., Molecular Pain, (2008), 4, 48 (c) Bennett G J and Xie Y K, Pain (1988), 33, 87-107. The screening of the compounds can also be carried out by some other methods and procedures known to persons skilled in the art.
Formalin-Induced Nocifensive Behaviour
Formalin also induces nocifensive behaviour (paw flinching and licking responses) in rats and mice. TRPA1-deficient mice show marked attenuation of characteristic paw flinching and licking responses as a result of intraplantar injection of formalin in a characteristic early and late phase manner. This model also serves as a selective TRPA1 based mechanistic model.
Compound 10 and compound 37 inhibited the formalin-induced nocifensive licking behaviour in both early & late phases in male SD rats.

rats = experiment: FCA (Freund's Complete Adjuvant)-induced inflammatory mechanical hyperalgesia; type: in vivo, rat; settings: for maximum efficacy against FCA-induced mechanical hyperalgesia: rats
From the text: as §1
FCA (Freund's Complete Adjuvant)-Induced Inflammatory Hyperalgesia
Freund's Complete Adjuvant (FCA), containing heat killed, dried Mycobaterium tuberculosis (1 mg/ml) emulsified in mineral oil and mannide monooleate, when injected (30 μl) into the plantar region of the paw of mice and rats induces an inflammatory hyperalgesia. Mechanical hyperalgesia (24 h after injection) was assessed by measuring hind paw withdrawal thresholds to an increasing pressure (g) stimulus, using the Randall-Sellitto analgesymeter (37215, Ugo Basile, Italy) fitted with a wedge-shaped probe.

[3] = molecular target: T1, Human TRPA1 expressing CHO cells (Homo sapiens, UniProt O75762); experiment: 45Calcium uptake assay: inhibition of AITC induced cellular uptake of radioactive calcium; type: cell-based; settings: AITC 30 μM, human TRPA1 CHO cells; for inhibition at 1 µM: 1.0 μM test compound, read-out: Percentage inhibition at 1.0 μM; for inhibition at 10 µM: 10.0 μM test compound, read-out: Percentage inhibition at 10.0 μM; for pIC50: read-out: IC50 value (range)
T1 construct: expressed in transfected cells; host or cells: CHO cells (under G-418 selection)
Summary of the method: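 CHO cells expressing human TRPA1 were preincubated 10 min with compound (0.5% DMSO final), then stimulated 3 min with 30 μM AITC plus 5 μCi/ml 45Ca2+. Lysate radioactivity gave % of maximal uninhibited response; IC50 by nonlinear regression.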

male SD rats [4] = experiment: Chronic Constriction Injury (CCI)-induced neuropathic pain (Bennett's model); type: in vivo, rat
From the text: as §1
Chronic Constriction Injury (CCI)-Induced Neuropathic Pain (Bennett's Model)
Chronic constriction injury (CCI) of sciatic nerve in rats and mice induces inflammatory mechanical hyperalgesia in this Bennet's neuropathic pain model. Rats were anesthetized using ketamine/xylazine (40/5 mg/kg, i.p.) and the left sciatic nerve was exposed at mid thigh level through a small incision. Four loose ligatures of 4-0 chromic cat gut (Ethicon-Johnson & Johnson) at 1 mm space were placed around the sciatic nerve […] of common sciatic nerve. After 6-7 days, mechanical hyperalgesia was assessed by measuring hind paw withdrawal thresholds to an increasing pressure (g) stimulus, using the Randall-Sellitto analgesymeter (Ugo Basile, Italy), fitted with a wedge-shaped probe.

male SD rats [5] = experiment: AITC-induced nocifensive behaviour in rats; type: in vivo, rat; settings: 10 mg/kg, p.o., AITC 5%
From the text: as §1
AITC-Induced Nocifensive Behaviour in Rats
Allyl isothiocyanate (AITC), a selective activator of TRPA1 receptor channel, induces nocifensive behavior (paw flinching and licking responses) in rats. The number of flinches and licking responses were counted for 45 min following the injection of 5% AITC into the plantar region of the paw. AITC being an activator of TRPA1 receptor, this model serves as a mechanistic validation for screened molecules as selective antagonists at TRPA1 channel receptor.

[6] = rat, plasma, oral, 10 mg/kg, male SD rats

T1 sequence (O75762 whole entry): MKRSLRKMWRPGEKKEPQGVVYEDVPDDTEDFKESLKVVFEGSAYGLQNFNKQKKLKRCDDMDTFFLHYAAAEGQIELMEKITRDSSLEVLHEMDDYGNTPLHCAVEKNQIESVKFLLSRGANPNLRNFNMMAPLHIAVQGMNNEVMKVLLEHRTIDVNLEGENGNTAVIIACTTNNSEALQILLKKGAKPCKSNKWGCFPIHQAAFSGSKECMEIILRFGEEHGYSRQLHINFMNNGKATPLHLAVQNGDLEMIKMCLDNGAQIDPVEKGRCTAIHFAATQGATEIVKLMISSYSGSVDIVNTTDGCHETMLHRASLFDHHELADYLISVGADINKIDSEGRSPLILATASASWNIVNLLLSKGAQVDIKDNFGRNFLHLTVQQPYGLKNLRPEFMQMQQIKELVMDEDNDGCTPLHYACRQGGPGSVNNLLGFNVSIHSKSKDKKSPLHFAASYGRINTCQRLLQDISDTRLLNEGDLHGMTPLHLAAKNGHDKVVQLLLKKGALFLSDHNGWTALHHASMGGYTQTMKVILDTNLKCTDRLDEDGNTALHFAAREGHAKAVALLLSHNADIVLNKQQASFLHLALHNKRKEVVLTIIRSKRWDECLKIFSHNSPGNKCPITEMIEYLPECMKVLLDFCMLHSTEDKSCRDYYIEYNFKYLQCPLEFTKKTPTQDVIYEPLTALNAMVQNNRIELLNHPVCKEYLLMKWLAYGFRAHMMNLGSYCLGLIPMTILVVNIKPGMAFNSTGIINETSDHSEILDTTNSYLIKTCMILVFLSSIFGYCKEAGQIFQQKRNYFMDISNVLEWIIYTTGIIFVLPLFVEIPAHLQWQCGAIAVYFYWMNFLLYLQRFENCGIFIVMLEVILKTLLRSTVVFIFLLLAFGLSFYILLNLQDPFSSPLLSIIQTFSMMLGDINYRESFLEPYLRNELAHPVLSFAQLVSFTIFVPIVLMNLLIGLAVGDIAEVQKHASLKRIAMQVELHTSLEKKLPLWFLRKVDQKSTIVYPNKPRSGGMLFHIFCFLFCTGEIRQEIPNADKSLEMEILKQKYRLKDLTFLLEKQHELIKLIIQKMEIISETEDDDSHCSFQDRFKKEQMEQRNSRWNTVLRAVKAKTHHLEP

## Cn1c(=O)c2c(CC(=O)Nc3nc(-c4ccc(Cl)cc4)cs3)cccc2n(C)c1=O [Example 10]
[1]; 10 mg/kg, CCI model, male SD rats
  plasma levels: 5100 ng/mL
[1]; rat, plasma, oral, 3 mg/kg, male SD rats, read-out: Plasma levels at 2 h
  concentration at 2 h: 2080 ng/mL
[1]; rat, plasma, oral, 10 mg/kg, male SD rats, read-out: Plasma levels at 2 h
  concentration at 2 h: 7380 ng/mL
[1]; rat, plasma, oral, 3, 5 and 10 mg/kg, male SD rats, read-out: plasma levels at 2 h post-dose (range over doses)
  concentration at 2 h: 2080 to 7380 ng/mL
[1]; rat, plasma, oral, 10 mg/kg, FCA model, rats
  concentration at 0.5 h: 3500 ng/mL
Male SD rats [2]
  inhibition of the early phase nocifensive behaviour: 58%
  inhibition of the late phase nocifensive behaviour: 58%
rats; 10 mg/kg, p.o.
  maximum efficacy against FCA-induced mechanical hyperalgesia: 81%
rats; Rattus norvegicus, po, doses 1, 3, 6 and 10 mg/kg
  ED50: 2.7 mg/kg
[3]
  inhibition at 1 µM: 99.7%
  inhibition at 10 µM: 99.9%
  pIC50: 7.00 to 7.30
Male SD rats [4]; 10 mg/kg, acute and chronic administration
  maximum efficacy, reversal of CCI-induced hyperalgesia: 75%
Male SD rats [4]; Rattus norvegicus, read-out: ED50, CCI-induced neuropathic hyperalgesia
  ED50: 3.5 mg/kg

## Cn1c(=O)c2c(CC(=O)Nc3nc(-c4ccc(C(F)(F)F)c(F)c4)cs3)cccc2n(C)c1=O [Example 37, N1-[4-(3-Fluoro-4-trifluoromethylphenyl)-1,3-thiazol-2-yl]-2-(1,3-dimethyl-2,4-dioxo-1,2,3,4-tetrahydro-5-quinazolinyl)acetamide]
[1]; [6]
  concentration at 4 h: 6200 ng/mL
Male SD rats [5]
  inhibition of AITC induced flinching: 39%
Male SD rats [2]
  inhibition of the early phase nocifensive behaviour: 18%
  inhibition of the late phase nocifensive behaviour: 59%
[3]
  inhibition at 1 µM: 97.5%
  inhibition at 10 µM: 99.4%
  pIC50: > 7.30

## Cn1c(=O)c2c(CC(=O)Nc3nc(-c4cccc(C(F)(F)F)c4)cs3)cccc2n(C)c1=O [Example 15, N1-[4-(3-Trifluoromethylphenyl)-1,3-thiazol-2yl]-2-(1,3-dimethyl-2,4-dioxo-1,2,3,4-tetrahydro-5-quinazolinyl)acetamide]
[1]; [6]
  concentration at 4 h: 9800 ng/mL
[1]; rat, plasma, oral, 30 mg/kg (p.o.), FCA model, rats
  concentration at 1 h: 3430 ng/mL
Male SD rats [5]
  inhibition of AITC induced flinching: 59%
rats; 30 mg/kg (p.o.)
  maximum efficacy against FCA-induced mechanical hyperalgesia: ~70%
[3]
  inhibition at 1 µM: 98%
  inhibition at 10 µM: 100%
  pIC50: > 7.30
